Consider 10 molecules from patent US20260085077A1, “HETEROCYCLIC DERIVATIVES AS JANUS KINASE INHIBITORS” (CHIESI FARMACEUTICI S.P.A., priority 2022, published 2026).

The experiment relates to IL-13 induced pSTAT6 in BEAS-2B human cell line. In words: Inhibition of IL-13 induced pSTAT6 in BEAS. It is filed as cell-based. Particulars: IL-13 induced pSTAT6, BEAS-2B cells, ELISA. Put shortly: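 BEAS-2B cells, cultured 48 h, were pretreated with compounds 30 min, then stimulated with IL-13 for 30 min. Phospho-STAT6 (Tyr641) in lysates quantified by sandwich ELISA; 11-point 5-fold series from 10 μM […], duplicate, IC50 fitted with QC (Z′≥0.35, Hill slope 0.5-5, S:B>2).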
(ELISA stands for enzyme-linked immunosorbent assay.)
Usually IC50 stands for the midpoint of a concentration-inhibition curve. High values mean lower potency, low ones higher potency. `COc1cc2c(cc1-n1nc(NC(=O)OCCN(C)C)c3cnc(-c4cnn5cccnc45)cc31)OCCN2` [Example 57, 2-(dimethylamino)ethyl (1-(6-methoxy-3,4-dihydro-2H-benzo[b][1,4]oxazin-7-yl)-6-(pyrazolo[1,5-a]pyrimidin-3-yl)-1H-pyrazolo[4,3-c]pyridin-3-yl)carbamate] had an IC50 of 5.01 to 50.1 nM.
The same measure for `COc1cc2c(cc1-n1nc(NC(=O)OCCCN3CCN(C)CC3)c3cnc(-c4cnn5cccnc45)cc31)OCCN2` [Example 59, 3-(4-methylpiperazin-1-yl)propyl (1-(6-methoxy-3,4-dihydro-2H-benzo[b][1,4]oxazin-7-yl)-6-(pyrazolo[1,5-a]pyrimidin-3-yl)-1H-pyrazolo[4,3-c]pyridin-3-yl)carbamate]: 5.01 to 50.1 nM; for `COc1cc2c(cc1-n1nc(C)c3cnc(-c4cnn5cccnc45)cc31)CCCC(=O)N2` [Example 3, 8-methoxy-7-(3-methyl-6-(pyrazolo[1,5-a]pyrimidin-3-yl)-1H-pyrazolo[4,3-c]pyridin-1-yl)-1,3,4,5-tetrahydro-2H-benzo[b]azepin-2-one]: 5.01 to 50.1 nM; for `COc1cc2c(cc1-n1nc(C(=O)NC[C@@H]3CN(C)CCO3)c3cnc(-c4cnn5cccnc45)cc31)SCC(=O)N2` [Example 21, (R)-1-(6-methoxy-3-oxo-3,4-dihydro-2H-benzo[b][1,4]thiazin-7-yl)-N-((4-methylmorpholin-2-yl)methyl)-6-(pyrazolo[1,5-a]pyrimidin-3-yl)-1H-pyrazolo[4,3-c]pyridine-3-carboxamide]: 5.01 to 50.1 nM.
The same measure for `CNc1nn(-c2cc3c(cc2OC)NCCO3)c2cc(-c3cnn4cccnc34)ncc12` [Example 55, 1-(6-methoxy-3,4-dihydro-2H-benzo[b][1,4]oxazin-7-yl)-N-methyl-6-(pyrazolo[1,5-a]pyrimidin-3-yl)-1H-pyrazolo[4,3-c]pyridin-3-amine]: 5.01 to 50.1 nM; for `COc1cc2c(cc1-n1nc(NC(=O)OCCN3CCN(C)CC3)c3cnc(-c4cnn5cccnc45)cc31)OCCN2` [Example 63, 2-(4-methylpiperazin-1-yl)ethyl (1-(6-methoxy-3,4-dihydro-2H-benzo[b][1,4]oxazin-7-yl)-6-(pyrazolo[1,5-a]pyrimidin-3-yl)-1H-pyrazolo[4,3-c]pyridin-3-yl)carbamate]: 5.01 to 50.1 nM; for `COc1cc2c(cc1-n1nc(NC(=O)OCCSC3CCOC3=O)c3cnc(-c4cnn5cccnc45)cc31)OCCN2` (stereo not shown) [Example 67, 2-((2-oxotetrahydrofuran-3-yl)thio)ethyl (1-(6-methoxy-3,4-dihydro-2H-benzo[b][1,4]oxazin-7-yl)-6-(pyrazolo[1,5-a]pyrimidin-3-yl)-1H-pyrazolo[4,3-c]pyridin-3-yl)carbamate]: 5.01 to 50.1 nM.
`CN(C)CCCNC(=O)c1nn(-c2cc3c(cc2OC(F)F)NCCO3)c2cc(-c3cnn4cccnc34)ncc12` [Example 78, 1-(6-(difluoromethoxy)-3,4-dihydro-2H-benzo[b][1,4]oxazin-7-yl)-N-(3-(dimethylamino)propyl)-6-(pyrazolo[1,5-a]pyrimidin-3-yl)-1H-pyrazolo[4,3-c]pyridine-3-carboxamide] showed a 50% inhibitory concentration (IC50) of 5.01 to 50.1 nM.
In turn, `COc1cc2c(cc1-n1nc(C(=O)NCCN3CC(=O)OC(C)(C)C3)c3cnc(-c4cnn5cccnc45)cc31)OCCN2` [Example 77, N-(2-(2,2-dimethyl-6-oxomorpholino)ethyl)-1-(6-methoxy-3,4-dihydro-2H-benzo[b][1,4]oxazin-7-yl)-6-(pyrazolo[1,5-a]pyrimidin-3-yl)-1H-pyrazolo[4,3-c]pyridine-3-carboxamide] gave an IC50 of 5.01 to 50.1 nM.
With `COc1cc2c(cc1-n1nc(NC(=O)NCCCN3CCOCC3)c3cnc(-c4cnn5cccnc45)cc31)OCCN2` [Example 70, 1-(1-(6-methoxy-3,4-dihydro-2H-benzo[b][1,4]oxazin-7-yl)-6-(pyrazolo[1,5-a]pyrimidin-3-yl)-1H-pyrazolo[4,3-c]pyridin-3-yl)-3-(3-morpholinopropyl)urea] the figure was 5.01 to 50.1 nM.
